According to patent US8476197B2, “Aminopropenoates as fungicides” (priority 2009, dated 2013):
Marks after values point to notes of the source that are not given here.

Conditions: pH 2.3
For `CCOC(=O)C(C#N)=C(NC(C)CSC)c1cccnc1OC` (centres unmarked) [Compound 687], the “Log P” value was 2.96.

Same assay, conditions: pH 2.7
In the case of `COC(=O)C(C#N)=C(NC(C(=O)OC)C(C)C)c1sc(C)nc1C(F)(F)F` (centres unmarked) [Compound 667], the “Log P” value is reported as 3.29^[a]. For `CCOC(=O)C(C#N)=C(NC(C)C(=O)OC)c1cn(C)nc1C(F)F` (centres unmarked) [Compound 673], the “Log P” value was 2.31^[a]. With `CCOC(=O)C(C#N)=C(NC(C(=O)OC)C(C)C)c1cn(C)nc1C(F)F` (centres unmarked) [Compound 675] the “Log P” value was 2.84^[a]. With `CCOC(=O)C(C#N)=C(NC(C)C(=O)OC)c1sc(C)nc1C(F)(F)F` (centres unmarked) [Compound 680] the “Log P” value was 2.94^[a]. For `CCOC(=O)C(C#N)=C(NC(C(=O)OC)C(C)C)c1sc(C)nc1C(F)(F)F` (centres unmarked) [Compound 682], the “Log P” value was 3.64^[a]. For `CCOC(=O)C(C#N)=C(NC(C)C(=O)Nc1ccc2ccccc2c1)c1cn(C)nc1C(F)F` (centres unmarked) [Compound 683], the “Log P” value was 3.31^[a]. With `CCOC(=O)C(C#N)=C(NC(C)COc1c(C)cccc1C)c1cn(C)nc1C(F)F` (centres unmarked) [Compound 684] the “Log P” value was 3.96^[a]. With `CCOC(=O)C(C#N)=C(NC(C)COC)c1cn(C)nc1C(F)F` (centres unmarked) [Compound 685] the “Log P” value was 2.41^[a]. For `CCOC(=O)C(C#N)=C(NC(C)C(=O)OCC)c1cn(C)nc1C(F)F` (centres unmarked) [Compound 686], the “Log P” value was 2.62^[a]. With `C=CC(COCc1ccccc1)NC(=C(C#N)C(=O)OCC)c1sccc1C(F)(F)F` (centres unmarked) [Compound 688] the “Log P” value was 4.36^[a]. In the case of `C=CC(COCc1ccccc1)NC(=C(C#N)C(=O)OCC)c1sccc1Br` (centres unmarked) [Compound 689], the “Log P” value is reported as 4.31^[a]. For `C=CC(COCc1ccccc1)NC(=C(C#N)C(=O)OC)c1sc(C)nc1C(F)(F)F` (centres unmarked) [Compound 690], the “Log P” value was 3.89^[a]. With `C=CC(COCc1ccccc1)NC(=C(C#N)C(=O)OCC)c1cn(C)nc1C(F)F` (centres unmarked) [Compound 691] the “Log P” value was 3.51^[a]. For `C=CC(COCc1ccccc1)NC(=C(C#N)C(=O)OCC)c1sc(C)nc1C(F)(F)F` (centres unmarked) [Compound 692], the “Log P” value was 4.21^[a]. With `CCOC(=O)C(C#N)=C(NC(C)(C)C(=O)OC)c1sccc1Br` [Compound 693] the “Log P” value was 3.23^[a]. In the case of `CCOC(=O)C(C#N)=C(NC(C)(C)C(=O)OC)c1sccc1C(F)(F)F` [Compound 694], the “Log P” value is reported as 3.37^[a]. In the case of `COC(=O)C(C#N)=C(NC(C)(C)C(=O)OC)c1sc(C)nc1C(F)(F)F` [Compound 695], the “Log P” value is reported as 2.9^[a]. For `CCOC(=O)C(C#N)=C(NC(C)(C)C(=O)OC)c1cn(C)nc1C(F)F` [Compound 696], the “Log P” value was 2.51^[a]. With `CCOC(=O)C(C#N)=C(NC(C)(C)C(=O)OC)c1sc(C)nc1C(F)(F)F` [Compound 697] the “Log P” value was 3.23^[a]. For `CCOC(=O)C(C#N)=C(NC(C)C(N)=O)c1nc(Cl)ccc1Cl` (centres unmarked) [Compound 698], the “Log P” value was 1.97^[a]. In the case of `CCOC(=O)C(C#N)=C(NC(C)C(N)=O)c1ncc(Cl)cc1Cl` (centres unmarked) [Compound 699], the “Log P” value is reported as 2.01^[a]. For `CCOC(=O)C(C#N)=C(NC(C)(C)CSC)c1sccc1C(F)(F)F` [Compound 700], the “Log P” value was 3.8^[a]. With `CCOC(=O)C(C#N)=C(NC(C)(C)CSC)c1sccc1Br` [Compound 701] the “Log P” value was 3.73^[a]. With `COC(=O)C(C#N)=C(NC(C)(C)CSC)c1sc(C)nc1C(F)(F)F` [Compound 702] the “Log P” value was 3.27^[a]. With `CCOC(=O)C(C#N)=C(NC(C)(C)CSC)c1cn(C)nc1C(F)F` [Compound 703] the “Log P” value was 2.84^[a]. For `CCOC(=O)C(C#N)=C(NC(C)(C)CSC)c1sc(C)nc1C(F)(F)F` [Compound 704], the “Log P” value was 3.62^[a]. In the case of `CCOC(=O)C(C#N)=C(NC(C)C(N)=O)c1cccnc1C(F)(F)F` (centres unmarked) [Compound 705], the “Log P” value is reported as 1.91^[a]. With `CCOC(=O)C(C#N)=C(NC(C)C(=O)NC)c1cccnc1C(F)(F)F` (centres unmarked) [Compound 706] the “Log P” value was 2.05^[a]. For `CCOC(=O)C(C#N)=C(NC(C)CN)c1sccc1Br` (centres unmarked) [Compound 707], the “Log P” value was 1.1^[a]. For `CCOC(=O)C(C#N)=C(NC(C)C(N)=O)c1nc(SC)ncc1Br` (centres unmarked) [Compound 709], the “Log P” value was 2.13^[a]. For `CCOC(=O)C(C#N)=C(NC(C(=O)OC)C(C)C)c1sc(Cl)nc1Cl` (centres unmarked) [Compound 710], the “Log P” value was 3.82^[a]. For `CCOC(=O)C(C#N)=C(NC(C(=O)OC)C(C)C)c1cn(C)nc1OC` (centres unmarked) [Compound 711], the “Log P” value was 2.71^[a]. For `CCOC(=O)C(C#N)=C(NC(C(=O)OC)C(C)C)c1cc(Cl)sc1Cl` (centres unmarked) [Compound 712], the “Log P” value was 4.14^[a]. With `CCOC(=O)C(C#N)=C(NC(C(=O)OC)C(C)C)c1cn(C)nc1C(F)(F)F` (centres unmarked) [Compound 713] the “Log P” value was 3.09^[a]. In the case of `CCOC(=O)C(C#N)=C(NC(C)COC)c1ccsc1Br` (centres unmarked) [Compound 714], the “Log P” value is reported as 3.21^[a]. With `CCOC(=O)C(C#N)=C(NC(C(=O)OC)C(C)C)c1ccsc1Br` (centres unmarked) [Compound 715] the “Log P” value was 3.48^[a]. In the case of `CCOC(=O)C(C#N)=C(NC(C(=O)OC)C(C)C)c1ccsc1Br` (centres unmarked) [Compound 716], the “Log P” value is reported as 3.71^[a]. With `CCOC(=O)C(C#N)=C(NC(C)C(=O)Nc1ccc2ccccc2c1)c1ccsc1Br` (centres unmarked) [Compound 717] the “Log P” value was 3.94^[a]. In the case of `CCOC(=O)C(C#N)=C(NC(C)COc1c(C)cccc1C)c1ccsc1Br` (centres unmarked) [Compound 718], the “Log P” value is reported as 4.86^[a]. For `C=Cc1nn(C)cc1C(NC(C(=O)OC)C(C)C)=C(C#N)C(=O)OCC` (centres unmarked) [Compound 719], the “Log P” value was 2.94^[a]. In the case of `CCOC(=O)C(C#N)=C(NC(C)C(=O)NC)c1cc(Cl)ncc1Cl` (centres unmarked) [Compound 720], the “Log P” value is reported as 2.19^[a]. With `CCOC(=O)C(C#N)=C(NC(C)C(N)=O)c1cc(Cl)ncc1Cl` (centres unmarked) [Compound 721] the “Log P” value was 2.64^[a]. In the case of `CCOC(=O)C(C#N)=C(NC(C)C(N)=O)c1ccncc1Cl` (centres unmarked) [Compound 722], the “Log P” value is reported as 1.65^[a]. In the case of `CCOC(=O)C(C#N)=C(NC(C)C(=O)NC)c1ccncc1Cl` (centres unmarked) [Compound 723], the “Log P” value is reported as 1.78^[a]. In the case of `CCOC(=O)C(C#N)=C(NC(C)C(=O)NC)c1cccnc1C(F)F` (centres unmarked) [Compound 724], the “Log P” value is reported as 1.62^[a]. In the case of `CCOC(=O)C(C#N)=C(NC(C(=O)OC)C(C)C)c1cn(C)cc1C(F)(F)F` (centres unmarked) [Compound 726], the “Log P” value is reported as 3.43^[a]. With `CCOC(=O)C(C#N)=C(NC(C)C(N)=O)c1cnccc1C(F)(F)F` (centres unmarked) [Compound 727] the “Log P” value was 1.8^[a]. In the case of `CCNC(=O)C(C)NC(=C(C#N)C(=O)OCC)c1cccnc1Cl` (centres unmarked) [Compound 728], the “Log P” value is reported as 2.1^[a]. For `CCOC(=O)C(C#N)=C(NC(C)C(N)=O)c1ccnc(Cl)c1Cl` (centres unmarked) [Compound 729], the “Log P” value was 1.88^[a]. With `CCOC(=O)C(C#N)=C(NC(C)C(=O)NC)c1ccnc(Cl)c1Cl` (centres unmarked) [Compound 730] the “Log P” value was 2.08^[a]. With `CCOC(=O)C(C#N)=C(NC(C)COCc1ccc(C(F)(F)F)cc1)c1cccnc1Cl` (centres unmarked) [Compound 731] the “Log P” value was 4.2^[a]. With `CCOC(=O)C(C#N)=C(NC(C(N)=O)C(C)C)c1cccnc1Cl` (centres unmarked) [Compound 732] the “Log P” value was 2.07^[a]. With `CCOC(=O)C(C#N)=C(NC(C)C(N)=O)c1ccncc1F` (centres unmarked) [Compound 733] the “Log P” value was 1.37^[a]. In the case of `CCOC(=O)C(C#N)=C(NC(C)COC)c1sccc1Br` (centres unmarked) [Compound 734], the “Log P” value is reported as 3.21^[a]. With `CCOC(=O)C(C#N)=C(NC(C)COc1ccc(C)cc1)c1cn(C)nc1C(F)F` (centres unmarked) [Compound 735] the “Log P” value was 3.71^[a]. In the case of `CCOC(=O)C(C#N)=C(NC(C)COc1ccc(F)cc1)c1cn(C)nc1C(F)F` (centres unmarked) [Compound 736], the “Log P” value is reported as 3.42^[a]. In the case of `CCOC(=O)C(C#N)=C(NC(C)C(C)Sc1ccccc1)c1cn(C)nc1C(F)F` (centres unmarked) [Compound 737], the “Log P” value is reported as 3.87^[a]. With `CCOC(=O)C(C#N)=C(NC(C)COc1ccccc1)c1cn(C)nc1C(F)F` (centres unmarked) [Compound 738] the “Log P” value was 3.37^[a]. With `CCOC(=O)C(C#N)=C(NC(C)COCc1ccccc1)c1cn(C)nc1C(F)F` (centres unmarked) [Compound 739] the “Log P” value was 3.48^[a]. For `CCOC(=O)C(C#N)=C(NC(C)COCc1ccccc1F)c1cn(C)nc1C(F)F` (centres unmarked) [Compound 740], the “Log P” value was 3.48^[a]. In the case of `CCOC(=O)C(C#N)=C(NC(C)COc1ccccc1Cl)c1cn(C)nc1C(F)F` (centres unmarked) [Compound 741], the “Log P” value is reported as 3.6^[a]. For `CCOC(=O)C(C#N)=C(NC(C)COc1cccc(OC)c1)c1cn(C)nc1C(F)F` (centres unmarked) [Compound 742], the “Log P” value was 3.35^[a]. With `COC(=O)C(C#N)=C(NC(C)(C)CF)c1cccnc1Cl` [Compound 744] the “Log P” value was 2.31^[a]. In the case of `CCOC(=O)C(C#N)=C(NC(C)CF)c1cc(C)oc1C` (centres unmarked) [Compound 745], the “Log P” value is reported as 2.8^[a]. In the case of `COC(=O)C(C#N)=C(NC(C)CF)c1cccnc1Cl` (centres unmarked) [Compound 746], the “Log P” value is reported as 2.05^[a]. In the case of `CCOC(=O)C(C#N)=C(NC(C)CF)c1cc(Cl)sc1Cl` (centres unmarked) [Compound 747], the “Log P” value is reported as 3.49^[a]. In the case of `CCOC(=O)C(C#N)=C(NC(C)CF)c1cn(C)nc1OC` (centres unmarked) [Compound 748], the “Log P” value is reported as 2.23^[a]. In the case of `C=Cc1nn(C)cc1C(NC(C)CF)=C(C#N)C(=O)OCC` (centres unmarked) [Compound 749], the “Log P” value is reported as 2.25^[a]. With `CCOC(=O)C(C#N)=C(NC(C)CF)c1ccncc1Cl` (centres unmarked) [Compound 750] the “Log P” value was 2.42^[a]. In the case of `CCOC(=O)C(C#N)=C(NC(C)CF)c1cn(C)nc1C(F)(F)F` (centres unmarked) [Compound 751], the “Log P” value is reported as 2.72^[a]. With `CCOC(=O)C(C#N)=C(NC(C)CF)c1cn(C)cc1C(F)(F)F` (centres unmarked) [Compound 752] the “Log P” value was 2.95^[a]. With `CCOC(=O)C(C#N)=C(NC(C)(C)C(C)(C)C)c1cn(C)nc1C(F)F` [Compound 753] the “Log P” value was 3.46^[a]. For `COC(=O)C(C#N)=C(NC(C)(C)C(C)(C)C)c1sc(C)nc1C(F)(F)F` [Compound 754], the “Log P” value was 4.02^[a].

Same assay, conditions: pH 7.5
In the case of `CCOC(=O)C(C#N)=C(NC(C)CSC)c1cccnc1OC` (centres unmarked) [Compound 687], the “Log P” value is reported as 2.95. For `CCOC(=O)C(C#N)=C(NC(C)C(N)=S)c1cccnc1Cl` (centres unmarked) [Compound 708], the “Log P” value was 1.87. For `CCOC(=O)C(C#N)=C(NC(C)CCl)c1cccnc1Cl` (centres unmarked) [Compound 743], the “Log P” value was 2.7.
